Values quoted from earlier work as cited in US20260216081A1, “METFORMIN HYDROCHLORIDE ENTERIC-COATED PREPARATION” (YAYAN (TIANJIN) BIOMEDICAL TECHNOLOGY CENTER (LIMITED …, priority 2023, published 2026).

Details: background statement

SMILES: CN(C)C(=N)N=C(N)N [metformin]
- Incidence of gastrointestinal adverse reactions: 20-30%
